Data taken from patent US7566808B2, “Management of ophthalmologic disorders, including macular degeneration” (President and Fellows of Harvard College, priority 2004, dated 2009).

How the values were obtained:
Sprague Dawley rats = conditions: reference [24]; cited from earlier work
[1] = test system: bovine retinal pigment epithelial membrane system (11-cis-retinol formation); assay: 11-cis-retinol formation in RPE membranes (IMH activity / RPE65 function); type: biochemical; conditions: 60 μM, data not shown
Method: A control reaction mixture without any inhibitor was also incubated at room temperature for 15 min. At the end of the 15 min incubation, all-trans-retinol [11-12-^3H2] (0.2 μM) was added to the reaction mixtures (100 mM Tris pH 8.0, […] of RPE protein, 0.2% BSA 100 μM of DPPC, 1 mM of DTT and 0.2 μM all-trans-retinol [11-12-^3H2]) and incubated at room temperature for 30 min. At the end of this 30 minutes of incubation, an aliquot of the reactions were quenched to verify the equal addition of all-trans-retinol [11,12-^3H2] and the effect of these inhibitors on LRAT. After this the control reaction mixture was incubated with atRA (60 & 6 μM), 13cRA (60 & 6 μM) or 4-HPR (60 & 6 μM) for 15 min. Now all the reaction mixtures were incubated with 30 μM of apo-rCRALBP (100 mM Tris pH 8.0, 7.7 μg of RPE protein, 0.2% BSA 100 μm of DPPC, 1 mM of DTT 30 μM apo-rCRALBP and 0.2 μM all-trans-retinol [11-12-^3H2]) at 37° C. for 30 minutes. At the end of this incubation period the 200 μL reaction mixture was quenched by the addition of 750 μL ice cold methanol after which 100 μL of 1M sodium chloride solution was added, and 500 μl hexane (containing butylated hydroxy toluene at 1 mg/mL) was added to effect extraction of the retinoids. The retinoids were analyzed as previously described (27). The amount of 11-cis-retinol formed was used as a measurement of IMH activity. All experiments were performed in triplicate and the average values of these measurements were used for analysis.
A control reaction mixture without any inhibitor was also incubated at room temperature for 15 min. At the end of the 15 min incubation, all-trans-retinol [11-12-^3H2] (0.2 μM) was added to the reaction mixtures (100 mM Tris pH 8.0, 76.7 μg of RPE protein, 0.2% BSA 100 μM of DPPC, 1 mM of DTT and 0.2 μM all-trans-retinol [11-12-^3H2]) and incubated at room temperature for 30 min. […] The retinoids were analyzed as previously described (27). […]

CC1=C(/C=C/C(C)=C/C=C/C(C)=C\C(=O)O)C(C)(C)CCC1 [13-cis-retinoic acid, reference compound]
inhibition of 11-cis-retinal regeneration after bleaching (literature) (Sprague Dawley rats): approximately 4 fold
inhibition of 11-cis-retinol formation, membranes pre-incubated with vitamin A before inhibitor [1]: not susceptible to inhibition
